Source: patent US7618790B2, “Method for NGF assay for in vitro diagnosis of breast cancer and therapeutic use” (Biomerieux, priority 2002, dated 2009)

Legend:
PC12 cells = experiment: Coculture of NGF-sensitive PC12 cells with MCF-7 breast cancer cells (neurite differentiation); type: cell-based
Procedure: To do this, cells which develop in the presence of NGF, i.e. PC12 cells, were cocultured with MCF-7 breast cancer cells, as described in point 1.1 above, or else with NBEC cells, as described in point 1.1 above, as a control.
The PC12 cells were cultured beforehand at 37° C. in a 5% CO2 atmosphere, in Dulbecco's modified minimum essential medium (DMEM) supplemented with 3 g/l of sodium bicarbonate, 4 mM of L-glutamine, 10% of fetal calf serum, 5% of horse serum and 100 units/ml of penicillin/streptomycin.
The coculturing was carried out with Transwell® tissue culture-treated polycarbonate plates (12 mm in diameter and 12 μm pore size). An initial equilibrating period was observed by adding the media to the central well of the plate, and then to the Transwell® insert, which operation was followed by incubation at 37° C. for 3 h.
The PC12 cells were seeded in 12-well plates coated with collagen for 24 h in order to ensure correct attachment to the culture plates. The MCF-7 or NCBE cells were seeded inside the Transwell® insert, corresponding to the upper compartment, in the complete medium for 24 h. After this time, each cell line was rinsed three times with serum-free medium and was incubated in a withdrawal medium. […] The percentage of cells bearing neurites, defined as cells with one or more neurite extensions twice the length of the cell body, was counted. […]

MCF-7 cells = experiment: Growth of MCF-7 cancer cells (cell count with hemocytometer); type: cell-based, human; settings: serum-free basic medium, 24-72 h, FIG. 4A
Procedure: The effect of the blocking antibody MAB-256 (above) and of the inhibitor K-252a on the growth of MCF-7 cells was studied. To do this, the cells were seeded in a proportion of 2×10^4 cells/ml in 35 mm dishes in complete medium. After having reached 40% confluency, the cells were washed twice and were left without nutrients in a serum-free medium containing fibronectin (2 μg/ml) and transferrin (30 μg/ml) for 3 h. The following hour, the medium was replaced with 2 ml of the same medium containing the inhibitor K-252a or the antibody […] at various concentrations in order to study the effect of the pharmacological inhibitor or of the blocking inhibitor on the base line growth level. After treatment for 24, 36, 48 and 72 h, the number of cells was determined, after trypsinization of the monolayer culture with a solution of 0.25% trypsin/EDTA, using a hemocytometer. An anti-mouse monoclonal antibody ([…], Sigma), i.e. an irrelevant antibody, was also used in order to determine the specificity of the blocking antibody.

Molecule | PC12 cell differentiation (cells bearing neurites) (PC12 cells; coculture of MCF-7 and PC12 cells, 48 h, FIG. 2B) | growth of the MCF-7 cells (number of cells) (MCF-7 cells) | PC12 cell differentiation (neurite development) (PC12 cells; culture of PC12 cells alone as a control, in the presence of NGF, FIG. 2B photograph 3)
COC(=O)[C@@]1(O)C[C@H]2O[C@]1(C)n1c3ccccc3c3c4c(c5c6ccccc6n2c5c31)C(=O)NC4 [K-252a] | strong inhibition of the PC12 cell differentiation | decreases | –
NGF: nerve growth factor added to the medium as positive control for PC12 differentiation | – | – | neurite development due to differentiation is observed
